Laboratory results published in paper PMC9703632, “The noncatalytic regions of the tyrosine kinase Tnk1 are important for activity and substrate specificity” (The Journal of Biological Chemistry, 2022).

Assays:
[1] = target: T1, Tnk1 (thirty-eight negative kinase 1) (Homo sapiens, UniProt Q13470); assay: single-concentration ([…]) inhibition, […]-ATP phosphocellulose kinase assay, WASP peptide; format: biochemical; conditions: read-out: % inhibition at 10 μM
T1 construct: Tnk1^ΔCT, residues 1-510 (SAM, kinase and SH3 domains), N-terminal 6x-His and GST tags, Sf9
T1 sequence (Q13470 1-510 isoform Q13470-2): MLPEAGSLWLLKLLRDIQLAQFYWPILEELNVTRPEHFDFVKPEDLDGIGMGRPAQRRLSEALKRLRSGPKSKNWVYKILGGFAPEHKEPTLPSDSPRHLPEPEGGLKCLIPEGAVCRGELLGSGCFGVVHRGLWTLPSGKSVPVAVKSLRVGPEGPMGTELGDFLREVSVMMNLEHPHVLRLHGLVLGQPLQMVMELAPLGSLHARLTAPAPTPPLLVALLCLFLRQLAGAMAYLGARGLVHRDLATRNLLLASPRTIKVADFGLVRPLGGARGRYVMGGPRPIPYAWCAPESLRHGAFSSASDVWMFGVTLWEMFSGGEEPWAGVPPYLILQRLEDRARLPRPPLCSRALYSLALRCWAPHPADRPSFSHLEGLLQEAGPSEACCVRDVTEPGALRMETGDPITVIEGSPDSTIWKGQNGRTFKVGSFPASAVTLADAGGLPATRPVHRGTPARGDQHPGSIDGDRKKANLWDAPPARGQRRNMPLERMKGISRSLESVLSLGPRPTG

[2] = target: T1, Tnk1 (thirty-eight negative kinase 1); assay: […]-ATP phosphocellulose kinase assay, WASP peptide, dose-response; format: biochemical
[3] = substrate: Nc1ncnc2c1ncn2[C@@H]1O[C@H](COP(=O)(O)OP(=O)(O)OP(=O)(O)O)[C@@H](O)[C@H]1O; assay: purified protein; format: biochemical, Homo sapiens; conditions: MgCl2

C#Cc1cccc(Nc2ncnc3cc(OCCOC)c(OCCOC)cc23)c1 [erlotinib]
inhibition at 10 µM [1]: 30 to 40%

COc1cc2ncnc(Nc3ccc(F)c(Cl)c3)c2cc1OCCCN1CCOCC1 [gefitinib]
inhibition at 10 µM [1]: 30 to 40%

CN1CCN(c2ccc(Nc3ncc(Cl)c(NC[C@H]4CCCO4)n3)cc2)CC1 [(R)-9b]
IC50 [2]: 470 nM

B1: Tnk1 (thirty-eight negative kinase 1) (Homo sapiens) (protein)
chain: T1 sequence (Q13470 1-510 isoform Q13470-2)
notes: Tnk1^ΔCT, residues 1-510 (SAM, kinase and SH3 domains), N-terminal 6x-His and GST tags, Sf9
Km [3]: 70 µM
